Here are results for 9 compounds from US20210161976A1, “BACTERIA ENGINEERED TO TREAT DISEASES THAT BENEFIT FROM REDUCED GUT INFLAMMATION AND/OR TIGHTENED GUT MUCOSAL BARRIER” (Synlogic Operating Company, Inc., priority 2016, published 2021).

The subject of series [1] is LPS-induced IFNγ secretion. In words: LPS-induction of IFNγ cell-based assay in human PBMCs (ELISA). The procedure: To assess the activity of the acetate-producing strain SYN2001 in vitro, we employed the LPS-induction of IFNγ cell-based assay. Frozen normal human PBMCs from two independent donors (Lot #'s A4956 and A4924) were plated in triplicate at 1×10^6 cells/mL in 96-well plates in complete media. The cells were then incubated for 15 minutes with media containing either a dilution series of synthetic acetate (40 mM-0.08 Mm), SYN2001 supernatant (30 mM-0.03 mM acetate concentrations based on LC-MS determination) or untreated (negative control). After the 15-minute incubation period, complete media containing LPS was added to the cells to a final concentration of 100 ng/mL and the cells were further incubated overnight under these conditions. The following day supernatants were harvested from each of the different conditions and the IFNγ levels assessed by ELISA. […] We noted that the absolute levels of IFNγ production in the SYN2001 experiments was higher than in the purified acetate experiments, likely due to residual additional LPS in the supernatants from the bacterially-derived acetate. Nonetheless, the IC50s observed for the two acetate sources were very similar.
On the technique in general: An ELISA detects its analyte on a solid surface through an enzyme-linked reagent.

Series [2] relates to neutrophils. The note with it: cited from earlier work.
Series [3] concerns PnsrR-GFP reporter construct. In words: Nitric oxide inducible PnsrR-GFP reporter construct, fluorescence in plate reader. It counts as cell-based, E. coli Nissle. As to conditions: DETA-NO, two-fold decreased inducer, 96-well, relative florescence units.
The target of series [4] is T1, PXR (Mus musculus, UniProt O54915).
T1 sequence (O54915 1-431): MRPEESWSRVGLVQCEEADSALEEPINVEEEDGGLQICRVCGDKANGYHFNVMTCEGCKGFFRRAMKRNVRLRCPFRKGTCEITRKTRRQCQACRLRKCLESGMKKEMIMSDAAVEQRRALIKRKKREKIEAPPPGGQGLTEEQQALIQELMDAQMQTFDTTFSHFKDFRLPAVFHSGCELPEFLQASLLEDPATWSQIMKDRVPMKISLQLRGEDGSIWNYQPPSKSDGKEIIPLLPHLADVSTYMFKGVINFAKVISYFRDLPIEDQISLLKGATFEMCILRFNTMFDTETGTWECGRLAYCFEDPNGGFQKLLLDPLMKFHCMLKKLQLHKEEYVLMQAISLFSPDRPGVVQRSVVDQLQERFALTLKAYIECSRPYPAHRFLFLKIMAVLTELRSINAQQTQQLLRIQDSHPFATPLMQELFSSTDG
As to conditions: in vivo; cited from earlier work.

Series [5] has as its system gut motility and inflammation. As to conditions: rats, early phase of acute colitis; cited from earlier work.
The test system of series [6] is HT-29 colon adenocarcinoma cells. Briefly: Cell viability assay in HT-29 cells (trypan blue, Cellometer K2). The note with it: 4 days, data not shown.
The subject of series [7] is Ptet-GFP reporter construct. Briefly: ATC-inducible Ptet-GFP reporter construct, fluorescence in plate reader. As to conditions: two-fold decreased inducer, 96-well, relative florescence units.
From the text: When induced by their cognate inducers, these constructs express GFP, which is detected by monitoring fluorescence in a plate reader at an excitation/emission of 395/509 nm, respectively.
These constructs, when induced by their cognate inducer, lead to high level expression of GFP, which is detected by monitoring fluorescence in a plate reader at an excitation/emission of 395/509 nm, respectively. […] Promoter activity is expressed as relative florescence units.
The test system of series [8] is STAT3. In words: STAT3 activation in Colo205 cells by IL-22 containing supernatants. As to conditions: average of 5 experiments. It counts as cell-based. As to the method:
To assess the biological activity of IL-22 produced by SYN3001 (IL-22 secreting strain), titrations of SYN3001 and SYN3000 (DOM mutant, non IL-22 secreting negative control strain) supernatants (starting at 150 ng/mL and titrated in 1:3 dilutions) were added to Colo205 cells and the activation of STAT3 was assessed. […] In contrast, SYN3000 had no effect on STAT3 activity.

In series [9] the target is T2, IL-22 (Homo sapiens, UniProt Q9GZX6).
T2 construct: IL-22 fused to a cleavable PhoA-secretion tag to mediate Sec-dependent secretion into the periplasm; PhoA secretion tag (21 amino acids) (N, cleaved yes); made in house; filtered culture supernatant
T2 sequence (Q9GZX6 34-179): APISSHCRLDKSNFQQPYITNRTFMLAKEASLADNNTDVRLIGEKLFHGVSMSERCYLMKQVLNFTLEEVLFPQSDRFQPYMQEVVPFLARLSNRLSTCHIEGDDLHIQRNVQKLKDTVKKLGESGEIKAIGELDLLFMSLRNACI
In words: Anti-IL-22 neutralizing antibody inhibition of STAT3 activation in Colo205 cells. In kind it is cell-based. As to conditions: IC50 of anti-IL-22 neutralizing antibody against STAT3 activation by the listed IL-22 source (3 ng/mL). The procedure:
To verify that the STAT3 activation elicited by supernatants from SYN3001 was indeed due to IL-22 signaling, Colo205 cells were stimulated with IL-22 supernatants derived from SYN3001 at 3 ng/mL in the presence of increasing concentrations of an anti-IL-22 neutralizing antibody. rLI-22 in the absence of the neutralizing antibody served as a positive control.

Read-outs that look alike come from different tables or passages of the source.

For the compound `CC(=O)O` [Acetate (synthetic)], the concentration giving a half-maximal response (EC50) was found to be 3120 µM in series [1] (decrease of LPS-induced IFNγ, human PBMCs donor 1, LPS 100 ng/mL, acetate concentration, read-out: EC50-donor 1) and 2180 µM in [1] (decrease of LPS-induced IFNγ, human PBMCs donor 2, LPS 100 ng/mL, acetate concentration, read-out: EC50-donor 2).
For the compound `CC(=O)O` [Acetate], the half-maximal effective concentration (EC50) was determined as 3120 µM in [1] (human PBMC, donor 1, 3 experiments in triplicate, LPS 100 ng/mL, read-out: EC50 on LPS-induced IFNγ secretion, Donor 1) and 2180 µM in series [1] (human PBMC, donor 2, 3 experiments in triplicate, LPS 100 ng/mL, read-out: EC50 on LPS-induced IFNγ secretion, Donor 2). Further, the “LPS-induced secretion of IFNγ” value in series [1] (primary human PBMC, two donors, FIG. 26G/26H) is on record as “dose-dependent decrease”.
As to `Nc1ccccc1C(=O)CC(N)C(=O)O` (stereo not shown) [Kynurenine], in series [2], the apoptosis in neutrophils entry is given as “induce apoptosis”.
On to `NCCN(CCN)/[N+]([O-])=N/O` [NO, diethylenetriamine-nitric oxide adduct], for which, in [3], the “induction of GFP expression” value is reported as “able to induce the expression of GFP”.
Take `O=C(O)CCc1c[nH]c2ccccc12` [indole 3-propionic acid (IPA), indole 3-propionic acid]: the PXR ligand result in series [4] is given as “ligand for PXR”.
As for `O=C(O)c1cc(=O)c2ccccc2[nH]1` [kynurenic acid], in series [5], the “gut motility and inflammation” value is “decreased gut motility and inflammation”.
As to `CCCC(=O)O` [synthetic butyrate, butyrate], the “effect on cell viability” value in [6] is “did not have any appreciable effect”.
In the case of anhydrous tetracycline [ATC], the “induction of GFP expression” value in series [7] was “able to induce the expression of GFP”.
Consider rIL-22, for which, in series [8], the 50% effective concentration (EC50) is recorded as 1.56 ng/mL. Besides, the concentration for half-maximal inhibition (IC50) in [9] is listed as 3.70 ng/mL.

A word on the EC50: it is the midpoint of the concentration-response curve. By IC50 is commonly meant the concentration at which inhibition is half-maximal. Low readings indicate greater potency, high ones weaker potency.
